ChEMBL document CHEMBL1201862, “PubChem BioAssay data set” (2004)
Calls of active or inactive are those of the source.

Tests used:
[1] = molecular target: T1, Delta-type opioid receptor (Homo sapiens, UniProt P41143); assay: HTS Image-Based Screen for Antagonists of the DOR Receptor. [Related pubchem assays (depositor defined):AID1777, AID1785, AID1786, AID2133]; type: functional
[2] = molecular target: Mu-type opioid receptor (Homo sapiens, UniProt P35372); assay: HTS Image-Based Screen for Agonists of the MOR Receptor. [Related pubchem assays (depositor defined):AID1777, AID1785, AID1786, AID2133]; type: functional;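 further: imaging of beta-arrestin GFP recruitment into spots after receptor activation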
[3] = molecular target: E3 ubiquitin-protein ligase Mdm2 (Homo sapiens, UniProt Q00987); assay: MDM2-luc reporter signal enhancers, multi-concentration potency testing, MDM2 ubiquitin-protein ligase inhibitor program, whole-cell format, luminescence detection, 384-well microplate (AID 1394); type: functional;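 further: MDM2 E3 inhibitors raise luminescence so EC50 is for signal enhancement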
[4] = tested on: Streptococcus sp. 'group A'; assay: Streptococcus pyogenes SK(-)GAS viability under kanamycin – luminescence, BacTiterGlo, confirmation, counter-screen for streptokinase expression inhibitor project, dose response (AID 1900); type: functional, organism-based
[5] = molecular target: T1, Delta-type opioid receptor; assay: HTS Image-Based Screen for Agonists of the DOR Receptor. [Related pubchem assays (depositor defined):AID1777, AID1786, AID2133]; type: functional
[6] = molecular target: T2, Beta-galactosidase (Escherichia coli, UniProt Q8VNN2); assay: PubChem AID 485352; type: functional
[7] = Trypanosoma cruzi growth suppression in host cells – NIH3T3 host cells, beta-gal luminescence, confirmation (AID 2044); type: functional, cell-based;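 further: intracellular parasites grown in NIH/3T3 mouse fibroblasts as host cells; luminescent beta-galactosidase reporter signal from transgenic T. cruzi replicating inside host cells; inhibitors lower the luminescence signal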
[8] = molecular target: T3, Type-1 angiotensin II receptor (Homo sapiens, UniProt P30556); assay: antagonism of angiotensin II type 1 receptor – cell-based, uHTS hits, selectivity assay for APJ receptor antagonist project, dose response (AID 463214); type: functional;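 further: antagonist potency against angiotensin II stimulated AT1 response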
T3 sequence (P30556 whole entry): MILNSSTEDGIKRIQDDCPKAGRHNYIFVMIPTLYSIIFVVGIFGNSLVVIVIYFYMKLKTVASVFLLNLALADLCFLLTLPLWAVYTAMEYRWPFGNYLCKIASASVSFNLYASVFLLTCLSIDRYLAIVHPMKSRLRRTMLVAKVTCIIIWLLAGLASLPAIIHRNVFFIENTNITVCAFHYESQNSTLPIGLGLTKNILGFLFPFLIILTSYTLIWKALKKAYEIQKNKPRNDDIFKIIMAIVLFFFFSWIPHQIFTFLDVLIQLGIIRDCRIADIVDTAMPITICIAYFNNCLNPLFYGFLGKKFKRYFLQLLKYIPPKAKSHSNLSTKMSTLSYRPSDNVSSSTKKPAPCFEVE

[9] = molecular target: T4, Kappa-type opioid receptor (Homo sapiens, UniProt P41145); type: functional
[10] = NIH3T3 cell viability loss – ATP luminescence, mouse fibroblasts, counter-screen, dose response (AID 2010); type: functional, cell-based;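 further: cells exposed to compound for about 90 hours before reading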
[11] = molecular target: T2, Beta-galactosidase; type: functional
[12] = molecular target: T4, Kappa-type opioid receptor; type: functional; remark: listed apart in the source
[13] = tested on: Streptococcus; assay: GAS UMAA2166 growth inhibition – luminescence, BacTiterGlo, counter-screen for streptokinase expression inhibitor project, dose response (AID 1915); type: functional, organism-based;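 further: potency for reduction of bacterial viability or growth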
[14] = molecular target: T5, Ubiquitin-conjugating enzyme E2 N (Homo sapiens, UniProt P61088); type: functional;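 further: Dose-response confirmation in a TR-FRET assay detecting UBC13-driven polyubiquitin chain formation, inhibition measured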
T5 sequence (P61088 whole entry): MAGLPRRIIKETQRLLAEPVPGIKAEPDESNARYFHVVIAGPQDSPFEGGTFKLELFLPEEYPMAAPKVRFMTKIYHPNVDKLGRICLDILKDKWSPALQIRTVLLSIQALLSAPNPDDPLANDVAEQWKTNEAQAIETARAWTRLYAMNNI

[15] = molecular target: Nonstructural protein 1 (Influenza A virus, UniProt Q194T2); type: functional, Influenza A virus (A/California/07/2009(H1N1))
[16] = molecular target: T6, Heat shock factor protein 1 (Mus musculus, UniProt P38532); assay: enhancement of HSF1-driven luciferase signal – cell-based, NIH3T3, luminescence, dose retest, confirmation (AID 435004); type: functional;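 further: stress induced by proteasome inhibitor MG132 added 30 min after compound; luciferase reporter driven by HSF1 response element in NIH3T3 cells; actives raise luminescence as potentiators of the MG132 stress response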
T6 sequence (P38532 whole entry): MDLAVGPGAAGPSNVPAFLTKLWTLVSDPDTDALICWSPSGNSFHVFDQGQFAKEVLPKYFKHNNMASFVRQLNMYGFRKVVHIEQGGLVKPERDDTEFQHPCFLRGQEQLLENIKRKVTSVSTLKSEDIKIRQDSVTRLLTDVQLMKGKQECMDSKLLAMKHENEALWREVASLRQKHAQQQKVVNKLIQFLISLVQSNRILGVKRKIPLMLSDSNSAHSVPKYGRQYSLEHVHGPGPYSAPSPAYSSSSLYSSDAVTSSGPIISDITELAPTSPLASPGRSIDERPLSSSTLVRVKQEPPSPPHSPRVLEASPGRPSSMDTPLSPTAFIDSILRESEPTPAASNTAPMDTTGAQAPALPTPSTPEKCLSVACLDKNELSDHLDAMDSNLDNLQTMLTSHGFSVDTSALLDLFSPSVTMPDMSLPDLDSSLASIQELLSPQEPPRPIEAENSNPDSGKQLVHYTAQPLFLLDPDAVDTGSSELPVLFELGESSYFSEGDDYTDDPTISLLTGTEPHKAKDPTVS

[17] = bead-based luminescence quenchers, dual-tagged ARNT – biochemical, AlphaScreen, cherry-pick, artefact control for ARNT-TACC3 interaction inhibitor project, dose response (AID 651705); type: functional;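 further: AlphaScreen bead proximity signal that flags compounds interfering with the detection technology; potency reflects signal decrease which marks the compound as an assay artifact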
[18] = Luminescence Cell-Based Dose Confirmation HTS to Identify Inhibitors of Polyadenylation.; type: functional
[19] = molecular target: Exodeoxyribonuclease V (Escherichia coli (strain K12), UniProt P04993+P07648+P08394); assay: RecBCD inhibition via phage-restricted bacterial growth – absorbance, V66 E. coli, mutant T4 phage, counter-screen for AddAB inhibitor project, dose response (AID 492957); type: functional, cell-based, Escherichia coli str. K-12 substr. MG1655
[20] = molecular target: Intestinal-type alkaline phosphatase (Mus musculus, UniProt P24822); assay: PubChem AID 488785; type: functional
[21] = molecular target: FAD-linked sulfhydryl oxidase ALR (Homo sapiens, UniProt P55789); assay: ALR-catalysed DTT oxidation blockers – biochemical, H2O2 detection, luminescence, cherry-pick, dose response (AID 493248)
[22] = molecular target: T7, Alkaline phosphatase, tissue-nonspecific isozyme (Homo sapiens, UniProt P05186); assay: TNAP enzyme inhibition by screening hits, dose response, selectivity assay for mouse IAP inhibitor project, biochemical, human TNAP, uHTS hits (AID 488906); type: functional
T7 sequence (P05186 whole entry): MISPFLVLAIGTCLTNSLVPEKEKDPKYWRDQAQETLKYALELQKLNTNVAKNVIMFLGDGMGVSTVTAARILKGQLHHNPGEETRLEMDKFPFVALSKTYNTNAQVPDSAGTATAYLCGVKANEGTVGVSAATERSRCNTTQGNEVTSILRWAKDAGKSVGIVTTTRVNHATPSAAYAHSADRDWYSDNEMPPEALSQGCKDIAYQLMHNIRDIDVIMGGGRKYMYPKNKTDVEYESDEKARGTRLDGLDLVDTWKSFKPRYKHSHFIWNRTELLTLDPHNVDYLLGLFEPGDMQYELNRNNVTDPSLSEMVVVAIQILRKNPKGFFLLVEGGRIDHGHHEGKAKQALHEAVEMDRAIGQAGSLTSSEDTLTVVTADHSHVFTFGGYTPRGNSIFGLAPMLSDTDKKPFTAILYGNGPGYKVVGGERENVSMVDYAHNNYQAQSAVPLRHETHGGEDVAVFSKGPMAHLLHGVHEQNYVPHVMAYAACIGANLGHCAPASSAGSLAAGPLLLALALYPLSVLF

[23] = Counterscreen for AddAB inhibitors: absorbance-based bacterial cell-based high throughput dose response assay for inhibitors of bacterial viability. [Related pubchem assays (depositor defined):AID435030, AID449728, AID449731, AID488942, AID488955, AID488956]; type: functional
[24] = molecular target: Intestinal-type alkaline phosphatase (Homo sapiens, UniProt P09923); assay: inhibition of human intestinal alkaline phosphatase – biochemical, dose response (AID 488876); type: functional
[25] = molecular target: T8, Apoptotic protease-activating factor 1 (Homo sapiens, UniProt O14727); type: functional
T8 sequence (O14727 whole entry): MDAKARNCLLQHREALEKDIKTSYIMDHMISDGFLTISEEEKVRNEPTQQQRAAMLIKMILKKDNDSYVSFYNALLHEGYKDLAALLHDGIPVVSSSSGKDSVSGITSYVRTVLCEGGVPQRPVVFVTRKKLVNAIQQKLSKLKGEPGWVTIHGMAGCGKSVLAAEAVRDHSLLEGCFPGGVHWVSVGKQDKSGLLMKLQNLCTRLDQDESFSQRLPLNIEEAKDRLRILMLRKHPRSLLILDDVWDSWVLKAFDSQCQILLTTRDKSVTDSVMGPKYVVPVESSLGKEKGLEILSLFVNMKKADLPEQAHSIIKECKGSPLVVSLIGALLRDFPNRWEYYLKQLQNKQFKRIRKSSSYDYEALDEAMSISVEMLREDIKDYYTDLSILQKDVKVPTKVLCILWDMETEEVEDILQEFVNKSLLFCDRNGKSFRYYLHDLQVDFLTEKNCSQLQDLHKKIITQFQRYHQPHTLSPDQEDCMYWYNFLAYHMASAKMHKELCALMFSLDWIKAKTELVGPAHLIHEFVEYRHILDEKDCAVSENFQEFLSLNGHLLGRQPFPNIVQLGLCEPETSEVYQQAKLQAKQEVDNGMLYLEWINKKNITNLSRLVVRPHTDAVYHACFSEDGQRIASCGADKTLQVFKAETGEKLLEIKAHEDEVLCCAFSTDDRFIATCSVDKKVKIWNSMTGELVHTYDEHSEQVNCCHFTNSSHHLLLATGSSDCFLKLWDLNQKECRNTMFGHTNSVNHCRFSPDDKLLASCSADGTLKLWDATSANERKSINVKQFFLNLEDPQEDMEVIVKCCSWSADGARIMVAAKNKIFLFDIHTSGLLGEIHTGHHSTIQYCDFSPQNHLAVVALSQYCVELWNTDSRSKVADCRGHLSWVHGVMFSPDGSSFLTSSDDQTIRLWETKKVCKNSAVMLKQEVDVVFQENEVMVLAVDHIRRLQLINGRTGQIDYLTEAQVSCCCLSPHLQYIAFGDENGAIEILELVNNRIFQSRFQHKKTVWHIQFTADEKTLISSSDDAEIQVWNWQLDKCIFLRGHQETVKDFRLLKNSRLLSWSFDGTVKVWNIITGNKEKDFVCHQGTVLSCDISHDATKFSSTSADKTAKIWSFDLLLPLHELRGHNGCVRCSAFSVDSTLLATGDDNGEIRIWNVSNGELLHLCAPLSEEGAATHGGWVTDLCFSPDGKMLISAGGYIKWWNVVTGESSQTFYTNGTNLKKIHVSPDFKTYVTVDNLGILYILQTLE

[26] = rise of 2N DNA cells, HeLa – IC50, dose response (AID 1117349); type: functional, cell-based
[27] = CellTiter-Glo luminescence survival assay, SW480 colon tumor line, concentration-response curve, half-maximal inhibitory concentration (AID 1117338); type: functional
[28] = RKO cell viability reduction, dose response, CellTiter-Glo luminescence (AID 1117322); type: functional
[29] = cytotoxicity toward HCT116 cells – cell-based, CellTiter-Glo luminescence, IC50, dose response (AID 1117332); type: functional; details: HCT-116
[30] = SNU-C1 cell viability reduction, dose response, CellTiter-Glo luminescence (AID 1117323); type: functional, cell-based
[31] = cytotoxicity toward Colo320 cells – cell-based, CellTiter-Glo luminescence, IC50, dose response (AID 1117334); type: functional; details: COLO 320
[32] = rise of 4N DNA cells, HeLa – IC50, dose response (AID 1117351); type: functional, cell-based
[33] = cytotoxicity toward HT-29 cells – cell-based, CellTiter-Glo luminescence, IC50, dose response (AID 1117330); type: functional
[34] = Reduced DLD-1 viability, concentration-response, CellTiter-Glo luminescence (AID 1117352); type: functional
[35] = HCT116 cell viability decrease, GSK3B pretreatment – CellTiter-Glo, IC50, dose response (AID 1117339); type: functional; details: HCT-116

T4 sequence (P41145 whole entry): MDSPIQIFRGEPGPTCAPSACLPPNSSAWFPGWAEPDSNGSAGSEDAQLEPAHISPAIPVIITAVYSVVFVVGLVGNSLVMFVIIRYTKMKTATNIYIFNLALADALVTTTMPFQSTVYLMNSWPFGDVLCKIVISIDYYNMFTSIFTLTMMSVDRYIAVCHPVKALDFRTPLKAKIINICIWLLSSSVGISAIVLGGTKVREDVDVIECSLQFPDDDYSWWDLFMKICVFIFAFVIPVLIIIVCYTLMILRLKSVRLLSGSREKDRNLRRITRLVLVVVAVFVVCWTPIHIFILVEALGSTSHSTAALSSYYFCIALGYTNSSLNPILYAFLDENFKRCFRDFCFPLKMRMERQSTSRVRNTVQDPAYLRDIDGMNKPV
T1 sequence (P41143 whole entry): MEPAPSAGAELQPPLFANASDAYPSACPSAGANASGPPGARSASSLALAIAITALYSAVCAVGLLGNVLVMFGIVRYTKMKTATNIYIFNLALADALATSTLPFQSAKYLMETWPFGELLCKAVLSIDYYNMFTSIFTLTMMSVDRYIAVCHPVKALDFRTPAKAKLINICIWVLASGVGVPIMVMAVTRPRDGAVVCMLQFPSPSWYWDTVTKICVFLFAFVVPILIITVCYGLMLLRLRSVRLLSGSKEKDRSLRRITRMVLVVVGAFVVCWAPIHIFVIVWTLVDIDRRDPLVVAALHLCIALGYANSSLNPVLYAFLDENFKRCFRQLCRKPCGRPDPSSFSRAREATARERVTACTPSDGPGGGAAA
T2 sequence (Q8VNN2 whole entry): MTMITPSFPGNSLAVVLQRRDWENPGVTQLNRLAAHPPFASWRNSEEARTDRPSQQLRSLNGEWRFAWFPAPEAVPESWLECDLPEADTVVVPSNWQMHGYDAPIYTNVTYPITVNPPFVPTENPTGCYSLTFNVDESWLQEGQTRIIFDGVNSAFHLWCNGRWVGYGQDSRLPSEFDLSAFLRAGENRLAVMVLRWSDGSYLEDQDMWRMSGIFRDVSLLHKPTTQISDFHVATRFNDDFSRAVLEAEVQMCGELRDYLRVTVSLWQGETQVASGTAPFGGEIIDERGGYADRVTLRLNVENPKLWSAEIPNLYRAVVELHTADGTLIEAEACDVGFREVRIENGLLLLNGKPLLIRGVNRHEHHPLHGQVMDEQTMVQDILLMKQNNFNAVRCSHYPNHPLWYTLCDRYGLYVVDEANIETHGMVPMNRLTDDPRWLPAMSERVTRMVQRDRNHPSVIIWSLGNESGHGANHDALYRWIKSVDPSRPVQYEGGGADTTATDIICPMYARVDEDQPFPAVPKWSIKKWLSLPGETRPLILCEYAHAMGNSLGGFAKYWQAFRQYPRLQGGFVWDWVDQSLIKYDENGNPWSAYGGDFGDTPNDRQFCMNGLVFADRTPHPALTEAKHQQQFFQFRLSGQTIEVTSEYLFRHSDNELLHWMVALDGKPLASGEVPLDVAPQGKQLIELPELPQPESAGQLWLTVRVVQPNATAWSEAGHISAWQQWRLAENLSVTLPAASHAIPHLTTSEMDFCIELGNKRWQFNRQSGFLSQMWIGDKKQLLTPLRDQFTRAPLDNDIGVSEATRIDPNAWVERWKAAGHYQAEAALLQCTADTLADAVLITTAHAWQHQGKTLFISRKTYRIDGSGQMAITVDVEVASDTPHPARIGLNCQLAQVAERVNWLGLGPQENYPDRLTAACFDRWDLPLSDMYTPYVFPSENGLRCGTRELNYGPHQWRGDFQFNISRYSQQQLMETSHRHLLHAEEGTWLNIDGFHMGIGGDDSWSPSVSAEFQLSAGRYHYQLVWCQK
Nonstructural protein 1, sequence (Q194T2 whole entry): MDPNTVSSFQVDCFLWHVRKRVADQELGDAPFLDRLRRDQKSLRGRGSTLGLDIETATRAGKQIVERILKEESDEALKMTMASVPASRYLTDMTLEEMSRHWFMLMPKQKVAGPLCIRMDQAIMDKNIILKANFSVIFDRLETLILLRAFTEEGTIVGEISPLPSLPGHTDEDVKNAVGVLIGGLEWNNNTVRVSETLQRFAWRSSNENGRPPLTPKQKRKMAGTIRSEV
Intestinal-type alkaline phosphatase (Homo sapiens, UniProt P09923), sequence (P09923 whole entry): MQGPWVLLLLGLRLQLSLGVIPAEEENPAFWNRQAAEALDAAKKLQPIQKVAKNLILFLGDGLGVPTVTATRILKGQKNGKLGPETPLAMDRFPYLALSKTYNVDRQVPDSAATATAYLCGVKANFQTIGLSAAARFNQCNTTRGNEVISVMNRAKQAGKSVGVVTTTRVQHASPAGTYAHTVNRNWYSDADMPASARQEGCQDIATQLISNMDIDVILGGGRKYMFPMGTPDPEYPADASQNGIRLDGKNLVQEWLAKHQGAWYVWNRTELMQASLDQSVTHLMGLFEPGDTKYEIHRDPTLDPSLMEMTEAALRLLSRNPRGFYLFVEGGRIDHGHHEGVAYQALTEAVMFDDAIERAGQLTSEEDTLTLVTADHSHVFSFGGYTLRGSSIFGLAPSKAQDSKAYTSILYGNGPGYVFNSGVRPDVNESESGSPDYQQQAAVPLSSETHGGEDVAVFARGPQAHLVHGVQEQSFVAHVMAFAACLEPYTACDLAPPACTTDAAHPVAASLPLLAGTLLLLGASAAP
E3 ubiquitin-protein ligase Mdm2, sequence (Q00987 whole entry): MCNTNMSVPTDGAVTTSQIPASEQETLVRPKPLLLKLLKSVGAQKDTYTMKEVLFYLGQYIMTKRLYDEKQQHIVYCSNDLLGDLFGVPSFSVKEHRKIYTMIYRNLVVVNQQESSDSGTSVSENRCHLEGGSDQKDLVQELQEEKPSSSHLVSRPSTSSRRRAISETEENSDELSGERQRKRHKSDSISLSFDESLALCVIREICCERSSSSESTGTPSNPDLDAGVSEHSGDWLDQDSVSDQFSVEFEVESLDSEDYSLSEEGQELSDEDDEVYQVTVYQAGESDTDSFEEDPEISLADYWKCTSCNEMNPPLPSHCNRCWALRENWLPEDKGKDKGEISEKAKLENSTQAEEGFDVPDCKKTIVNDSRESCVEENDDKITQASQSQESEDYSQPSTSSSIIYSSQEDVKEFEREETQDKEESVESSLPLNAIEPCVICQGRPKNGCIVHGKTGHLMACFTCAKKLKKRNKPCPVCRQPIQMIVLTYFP
Mu-type opioid receptor, sequence (P35372 whole entry): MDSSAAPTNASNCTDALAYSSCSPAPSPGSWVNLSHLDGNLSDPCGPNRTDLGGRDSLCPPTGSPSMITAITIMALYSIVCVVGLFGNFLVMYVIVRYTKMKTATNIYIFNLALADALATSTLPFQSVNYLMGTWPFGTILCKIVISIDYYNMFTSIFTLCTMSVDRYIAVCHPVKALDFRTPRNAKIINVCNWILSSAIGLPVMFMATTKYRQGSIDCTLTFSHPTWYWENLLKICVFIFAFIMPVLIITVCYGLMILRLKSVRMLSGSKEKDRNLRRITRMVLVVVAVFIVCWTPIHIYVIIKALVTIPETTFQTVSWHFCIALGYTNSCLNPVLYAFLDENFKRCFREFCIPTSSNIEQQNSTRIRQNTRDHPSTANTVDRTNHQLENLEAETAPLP
FAD-linked sulfhydryl oxidase ALR, sequence (P55789 whole entry): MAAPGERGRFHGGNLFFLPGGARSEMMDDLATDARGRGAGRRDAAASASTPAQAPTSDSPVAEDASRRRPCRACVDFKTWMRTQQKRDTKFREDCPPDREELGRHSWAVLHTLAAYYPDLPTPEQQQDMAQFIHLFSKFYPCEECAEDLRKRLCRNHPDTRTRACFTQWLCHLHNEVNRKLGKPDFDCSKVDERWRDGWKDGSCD
Intestinal-type alkaline phosphatase (Mus musculus, UniProt P24822), sequence (P24822 whole entry): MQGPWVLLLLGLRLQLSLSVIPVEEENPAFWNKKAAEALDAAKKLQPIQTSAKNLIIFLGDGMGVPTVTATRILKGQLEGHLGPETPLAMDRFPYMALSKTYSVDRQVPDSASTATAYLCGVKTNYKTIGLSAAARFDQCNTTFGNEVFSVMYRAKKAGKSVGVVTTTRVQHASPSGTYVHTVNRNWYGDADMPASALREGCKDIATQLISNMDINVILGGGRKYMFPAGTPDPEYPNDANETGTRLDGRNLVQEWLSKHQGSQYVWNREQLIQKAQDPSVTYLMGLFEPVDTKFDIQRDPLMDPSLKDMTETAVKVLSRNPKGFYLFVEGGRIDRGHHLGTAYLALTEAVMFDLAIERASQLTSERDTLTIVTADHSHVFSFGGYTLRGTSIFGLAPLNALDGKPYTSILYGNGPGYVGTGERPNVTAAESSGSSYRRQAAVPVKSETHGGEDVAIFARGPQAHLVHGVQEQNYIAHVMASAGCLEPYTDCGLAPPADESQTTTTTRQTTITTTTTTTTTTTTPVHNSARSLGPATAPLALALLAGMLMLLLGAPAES

COCc1cc(O)nc(Nc2nc3ccc(C)cc3o2)n1
IC50 [1]: > 32 µM (inactive)
EC50 [2]: > 32 µM (inactive)
EC50 [3]: 0.56 µM (active)
EC50 [4]: 2.11 µM (active)
EC50 [5]: > 32 µM (inactive)
EC50 [6]: > 40 µM (inactive)
EC50 [7]: 1.87 µM (active)
IC50 [8]: 6.83 µM (active)
IC50 [9]: 7.12 µM (active)
EC50 [10]: 4.89 µM (active)
EC50 [11]: > 31.5 µM (inactive)
IC50 [12]: > 32 µM
EC50 [13]: 7.89 µM (active)
IC50 [14]: > 20 µM (inactive)
IC50 [15]: 16.1 µM (active)
EC50 [16]: 11.1 µM (active)
AC50 [17]: 103 µM (active)

CCN1/C(=C/C=C/c2sc3ccccc3[n+]2CC)Sc2ccccc21
EC50 [4]: 2.54 µM (active)
EC50 [18]: 11.1 µM (active)
EC50 [13]: 3 µM (active)
IC50 [19]: 80.9 µM (inactive)
IC50 [20]: 1.55 µM (active)
IC50 [15]: 9.73 µM (active)
AC50 [21]: 0.522 µM (active)
IC50 [22]: 74.8 µM (active)
IC50 [23]: 99.5 µM (inactive)
IC50 [24]: > 100 µM (inactive)
IC50 [25]: 20.8 µM (active)
IC50 [26]: 8.51 µM (inactive)
IC50 [27]: 0.172 µM (active)
IC50 [28]: 0.00898 µM (active)
IC50 [29]: 0.00957 µM (active)
IC50 [30]: 0.0172 µM (active)
IC50 [31]: 0.562 µM (active)
IC50 [32]: > 10 µM (inactive)
IC50 [33]: 0.00838 µM (active)
IC50 [34]: 0.0148 µM (active)
IC50 [35]: 0.00875 µM (active)
